The test system of this assay is C57BL6 mice. Format: in vivo. To be noted: 30 ug/ml in drinking water, day 5.

SMILES strings stand for the structures.

Take `c1ccc(-c2ccc(CNCCNCc3ccc(-c4ccccn4)cc3)cc2)nc1` [BC-1215]: the lung resistance entry is “decreased lung resistance”.

These data come from patent publication US11857550B2, “Benzathine analogs” (University of Pittsburgh—Of the Commonwealth System of …, priority 2012, dated 2024).
